# Read-outs that look alike come from different tables or passages of the source.
# Tests used:
# Type in all cases: in vivo
# corn (Zea mays) = assay: Test A pre-/postemergence: corn; details: Zea mays, 240 h
# Summary of the method: (§1)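 Injury is scored visually on a scale where 0 means no effect and 100 complete control, comparing treated with untreated plants after approximately ten greenhouse days. Both preemergence and postemergence applications are made at the same time.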
# [1] = tested on: morningglory (Ipomoea coccinea); assay: Test C pre-/postemergence: morningglory
# Summary of the method: (§2)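 Visual injury scored 0–100 (100 = complete control) against untreated controls after 13–15 greenhouse days. Surfactant-containing solvent formulations applied either to soil after sowing (loam/sand) or over 1- to 4-leaf plants, 2–18 cm tall.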
# [2] = tested on: wheat (Triticum aestivum); assay: Test A pre-/postemergence: wheat; details: Triticum aestivum, 240 h; for plant injury at 125 g/ha: 125 g ai/ha; for plant injury at 500 g/ha: 500 g ai/ha
# Summary of the method: as §1
# [3] = tested on: pigweed (Amaranthus retroflexus); assay: Test A pre-/postemergence: pigweed; details: Amaranthus retroflexus, 240 h; for pest or weed control at 125 g/ha: 125 g ai/ha; for pest or weed control at 500 g/ha: 500 g ai/ha
# Summary of the method: as §1
# [4] = tested on: morningglory (Ipomoea spp.); assay: Test A pre-/postemergence: morningglory; details: Ipomoea, 240 h; for pest or weed control at 125 g/ha: 125 g ai/ha; for pest or weed control at 500 g/ha: 500 g ai/ha
# Summary of the method: as §1
# kochia (Kochia scoparia) = assay: Test C pre-/postemergence: kochia
# Summary of the method: as §2
# [5] = tested on: lambsquarters (Chenopodium album); assay: Test C pre-/postemergence: lambsquarters
# Summary of the method: as §2
# [6] = tested on: foxtail, giant (giant foxtail, Setaria faberii); assay: Test C pre-/postemergence: foxtail, giant
# Summary of the method: as §2
# [7] = tested on: chickweed (common chickweed, Stellaria media); assay: Test C postemergence: chickweed
# Summary of the method: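 Response values are visual ratings, 0 (no effect) to 100 (complete control), made by comparison with untreated controls 13 to 15 days after postemergence treatment of greenhouse-grown potted plants that were 2 to 18 cm high at spraying.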
# [8] = tested on: velvetleaf (Abutilon theophrasti); assay: Test A pre-/postemergence: velvetleaf; details: Abutilon theophrasti, 240 h; for pest or weed control at 125 g/ha: 125 g ai/ha; for pest or weed control at 500 g/ha: 500 g ai/ha
# Summary of the method: as §1
# [9] = tested on: pigweed (Amaranthus retroflexus); assay: Test C pre-/postemergence: pigweed
# Summary of the method: as §2
# [10] = tested on: ryegrass, Italian (Italian ryegrass, Lolium multiflorum); assay: Test C pre-/postemergence: ryegrass, Italian
# Summary of the method: as §2
# [11] = Postemergence, 31 g ai/ha, scale 0 to 100 (0 no effect, 100 complete control)
# [12] = Postemergence, 62 g ai/ha, scale 0 to 100 (0 no effect, 100 complete control)
# [13] = Postemergence, 125 g ai/ha, scale 0 to 100, 0 no effect, 100 complete control
# [14] = Postemergence, 250 g ai/ha, scale 0 to 100
# [15] = Preemergence, 31 g ai/ha, scale of 0 to 100, 0 is no effect, 100 is complete control
# [16] = Preemergence, 62 g ai/ha, scale of 0 to 100, 0 is no effect, 100 is complete control
# [17] = Preemergence, 125 g ai/ha, scale 0 to 100, 0 no effect, 100 complete control
# [18] = Preemergence, 250 g ai/ha, scale 0 to 100, 0 no effect, 100 complete control
compound,measurement,setting,value
"Cc1nn(-c2ccc(F)cc2)nc1Oc1ccnc(C(F)(F)F)c1 [Compound 129, 4-[[2-(4-fluorophenyl)-5-methyl-2H-1,2,3-triazol-4-yl]oxy]-2-(trifluoromethyl)pyridine]",plant injury at 125 g/ha,"corn (Zea mays); post-emergence, Postemergence, 125 g ai/ha, 0 to 100 scale, 0 is no effect, 100 is complete control, read-out: Corn plant response rating",30%
same,plant injury at 500 g/ha,"corn (Zea mays); post-emergence, Postemergence, 500 g ai/ha, visual rating on 0 to 100 scale (0 no effect, 100 complete control), approximately ten days, read-out: Corn plant response rating",40%
same,"Corn plant response rating (crop injury, 0 = no effect, 100 = complete kill) at 125 g/ha","corn (Zea mays); pre-emergence, Preemergence, 125 g ai/ha, 0 to 100 scale where 0 is no effect and 100 is complete control",50%
same,"Corn plant response rating (crop injury, 0 = no effect, 100 = complete kill) at 500 g/ha","corn (Zea mays); pre-emergence, Preemergence, 500 g ai/ha, 0 to 100 scale (0 no effect, 100 complete control)",60%
same,"Plant response rating, Morningglory",[1]; [11],50
same,"Plant response rating, Morningglory",[1]; [12],55
same,"Plant response rating, Morningglory",[1]; [13],65
same,"Plant response rating, Morningglory",[1]; [14],75
same,"Plant response rating, Morningglory",[1]; [15],0
same,"Plant response rating, Morningglory",[1]; [16],20
same,"Plant response rating, Morningglory",[1]; [17],60
same,"Plant response rating, Morningglory",[1]; [18],65
same,plant injury at 125 g/ha,"[2]; post-emergence, Postemergence, 0 to 100 scale, 0 is no effect, 100 is complete control, read-out: Wheat plant response rating",20%
same,plant injury at 500 g/ha,"[2]; post-emergence, Postemergence, visual rating on 0 to 100 scale (0 no effect, 100 complete control), approximately ten days, read-out: Wheat plant response rating",30%
same,plant injury at 125 g/ha,"[2]; pre-emergence, Preemergence, 0 to 100 scale where 0 is no effect and 100 is complete control, read-out: Plant response rating, Wheat",10%
same,plant injury at 500 g/ha,"[2]; pre-emergence, Preemergence, 0 to 100 scale (0 no effect, 100 complete control), read-out: Plant response rating, Wheat",50%
same,pest or weed control at 125 g/ha,"[3]; post-emergence, Postemergence, 0 to 100 scale, 0 is no effect, 100 is complete control, read-out: Pigweed plant response rating",100%
same,pest or weed control at 500 g/ha,"[3]; post-emergence, Postemergence, visual rating on 0 to 100 scale (0 no effect, 100 complete control), approximately ten days, read-out: Pigweed plant response rating",100%
same,pest or weed control at 125 g/ha,"[3]; pre-emergence, Preemergence, 0 to 100 scale where 0 is no effect and 100 is complete control, read-out: Plant response rating, Pigweed",100%
same,pest or weed control at 500 g/ha,"[3]; pre-emergence, Preemergence, 0 to 100 scale (0 no effect, 100 complete control), read-out: Plant response rating, Pigweed",100%
same,pest or weed control at 125 g/ha,"[4]; post-emergence, Postemergence, 0 to 100 scale, 0 is no effect, 100 is complete control, read-out: Morningglory plant response rating",100%
same,pest or weed control at 500 g/ha,"[4]; post-emergence, Postemergence, visual rating on 0 to 100 scale (0 no effect, 100 complete control), approximately ten days, read-out: Morningglory plant response rating",100%
same,pest or weed control at 125 g/ha,"[4]; pre-emergence, Preemergence, 0 to 100 scale where 0 is no effect and 100 is complete control, read-out: Plant response rating, Morningglory",50%
same,pest or weed control at 500 g/ha,"[4]; pre-emergence, Preemergence, 0 to 100 scale (0 no effect, 100 complete control), read-out: Plant response rating, Morningglory",60%
same,"Plant response rating, Kochia",kochia (Kochia scoparia); [11],95
same,"Plant response rating, Kochia",kochia (Kochia scoparia); [12],95
same,"Plant response rating, Kochia",kochia (Kochia scoparia); [13],98
same,"Plant response rating, Kochia",kochia (Kochia scoparia); [14],98
same,"Plant response rating, Kochia",kochia (Kochia scoparia); [15],5
same,"Plant response rating, Kochia",kochia (Kochia scoparia); [16],90
same,"Plant response rating, Kochia",kochia (Kochia scoparia); [17],90
same,"Plant response rating, Kochia",kochia (Kochia scoparia); [18],95
same,"Plant response rating, Lambsquarters",[5]; [11],98
same,"Plant response rating, Lambsquarters",[5]; [12],98
same,"Plant response rating, Lambsquarters",[5]; [13],98
same,"Plant response rating, Lambsquarters",[5]; [14],100
same,"Plant response rating, Lambsquarters",[5]; [15],95
same,"Plant response rating, Lambsquarters",[5]; [16],95
same,"Plant response rating, Lambsquarters",[5]; [17],98
same,"Plant response rating, Lambsquarters",[5]; [18],100
same,"Plant response rating, Foxtail, Giant",[6]; [11],0
same,"Plant response rating, Foxtail, Giant",[6]; [12],20
same,"Plant response rating, Foxtail, Giant",[6]; [13],30
same,"Plant response rating, Foxtail, Giant",[6]; [14],65
same,"Plant response rating, Foxtail, Giant",[6]; [15],95
same,"Plant response rating, Foxtail, Giant",[6]; [16],98
same,"Plant response rating, Foxtail, Giant",[6]; [17],98
same,"Plant response rating, Foxtail, Giant",[6]; [18],98
same,"Plant response rating, Chickweed","[7]; 31 g ai/ha, scale 0 to 100 (0 no effect, 100 complete control)",15
same,"Plant response rating, Chickweed","[7]; 62 g ai/ha, scale 0 to 100 (0 no effect, 100 complete control)",45
same,"Plant response rating, Chickweed","[7]; 125 g ai/ha, scale 0 to 100, 0 no effect, 100 complete control",80
same,"Plant response rating, Chickweed","[7]; 250 g ai/ha, scale 0 to 100",98
same,pest or weed control at 125 g/ha,"[8]; post-emergence, Postemergence, 0 to 100 scale, 0 is no effect, 100 is complete control, read-out: Velvetleaf plant response rating",70%
same,pest or weed control at 500 g/ha,"[8]; post-emergence, Postemergence, visual rating on 0 to 100 scale (0 no effect, 100 complete control), approximately ten days, read-out: Velvetleaf plant response rating",100%
same,pest or weed control at 125 g/ha,"[8]; pre-emergence, Preemergence, 0 to 100 scale where 0 is no effect and 100 is complete control, read-out: Plant response rating, Velvetleaf",60%
same,pest or weed control at 500 g/ha,"[8]; pre-emergence, Preemergence, 0 to 100 scale (0 no effect, 100 complete control), read-out: Plant response rating, Velvetleaf",70%
same,"Plant response rating, Pigweed",[9]; [11],85
same,"Plant response rating, Pigweed",[9]; [12],98
same,"Plant response rating, Pigweed",[9]; [13],98
same,"Plant response rating, Pigweed",[9]; [14],100
same,"Plant response rating, Pigweed",[9]; [15],100
same,"Plant response rating, Pigweed",[9]; [16],100
same,"Plant response rating, Pigweed",[9]; [17],100
same,"Plant response rating, Pigweed",[9]; [18],100
same,"Plant response rating, Ryegrass, Italian",[10]; [11],5
same,"Plant response rating, Ryegrass, Italian",[10]; [12],15
same,"Plant response rating, Ryegrass, Italian",[10]; [13],30
same,"Plant response rating, Ryegrass, Italian",[10]; [14],60
same,"Plant response rating, Ryegrass, Italian",[10]; [15],60
same,"Plant response rating, Ryegrass, Italian",[10]; [16],90
same,"Plant response rating, Ryegrass, Italian",[10]; [17],90
same,"Plant response rating, Ryegrass, Italian",[10]; [18],95

# Source: patent US9302999B2, “Substituted triazoles as herbicides” (E. I. DU PONT DE NEMOURS AND COMPANY, priority 2012, dated 2016)
